Assay results as given in paper PMC5676521 (Chemical Science, 2017).

Target: PRMT7 (TbPRMT7) (Trypanosoma brucei, UniProt Q582G4)
Sequence (Q582G4 whole entry): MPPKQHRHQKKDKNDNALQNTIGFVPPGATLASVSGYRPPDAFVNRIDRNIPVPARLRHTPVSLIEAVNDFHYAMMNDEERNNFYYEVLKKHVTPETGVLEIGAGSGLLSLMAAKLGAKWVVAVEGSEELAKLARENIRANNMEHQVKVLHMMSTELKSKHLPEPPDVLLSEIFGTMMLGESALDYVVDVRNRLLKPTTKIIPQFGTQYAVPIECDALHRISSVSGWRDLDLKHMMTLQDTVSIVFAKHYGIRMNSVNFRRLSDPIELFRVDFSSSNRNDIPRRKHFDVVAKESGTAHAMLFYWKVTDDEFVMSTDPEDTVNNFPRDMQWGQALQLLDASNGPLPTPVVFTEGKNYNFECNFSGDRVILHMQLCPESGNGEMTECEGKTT

**Q.** How did the Km turn out when `C[S+](CC[C@H](N)C(=O)O)C[C@H]1O[C@@H](n2nnc3c(N)ncnc32)[C@H](O)[C@@H]1O` (stereo partly shown) [8-aza-SAM] was run?
**A.** 15.3 ± 0.7 µM
